According to patent publication USRE42748E1, “Oral DTPA for radionuclide chelation” (priority 2006, dated 2011):
Values joined by “and” are separate entries in the source; they are usually repeats but may differ in a detail not shown here. Equal entries are not always repeated.

Tests used:
[1] = system: harvested rat small intestinal segments: Duodenum; experiment: Ussing chamber mucosal to serosal transport across rat duodenum; assay type: in vitro ADME; conditions: 5 mg/ml of DTPA in HEPES Buffer
Protocol: (§1) The primary objective of these in vitro studies was to determine a formulation containing permeation enhancers/other additives that achieved maximum transport of DTPA from mucosal to serosal side of the intestine. The mucosal to serosal absorption of DTPA (Zinc/Calcium) was measured in vitro across harvested rat intestinal segments and colon, in an EasyMount Ussing System (Physiological Instruments Inc., CA, Item #EM-CSYS-8). The Ussing chamber consists of two diffusion chambers, a heating block for temperature control, needle valves for gas flow adjustment and gas lift stirring, and Ag/AgCl voltage and current electrodes for measuring transepithelial voltage and for passing current. Representative sections of the harvested rat small intestinal segments (jejunum, duodenum, and ileum) and the rat colon were mounted on sliders placed between the chambers, and DTPA (Zinc/Calcium) transport across the sections was monitored. Aliquots of sample solution were removed from the ‘serosal’ side at 30 min intervals and analyzed by high performance liquid chromatography (HPLC). The change in mucosal to serosal transport of DTPA (Zinc/Calcium) in the presence of different permeation enhancers was determined.
(§2) Zn-DTPA and Ca-DTPA was dissolved in HEPES buffer (VWR, Brisbane, Calif.), with or without additives, at the predetermined drug concentrations. […]

[2] = system: harvested rat small intestinal segments: Jejunum; experiment: Ussing chamber mucosal to serosal transport across rat jejunum; assay type: in vitro ADME
Protocol: as §1
Zn-DTPA and Ca-DTPA was dissolved in HEPES buffer (VWR, Brisbane, Calif.), with or without additives, at the predetermined drug concentrations. HEPES buffer was used as the base mucosal and serosal fluid. Before initiating the experiment, 5 ml of HEPES buffer was added to each of the two chambers (mucosal and serosal) and was allowed to equilibrate for 20 min. Next, the mucosal buffer was replaced by the appropriate formulation to be tested and the experiment was initiated. Aliquots (0.5 ml) were collected from the serosal side and were replaced with an equivalent amount of fresh HEPES buffer (maintained at physiological temperature). The aliquotted samples from the serosal side were analyzed by HPLC.
Owing to the expected variation in the in vitro conditions and harvested rat intestinal segments, five replicates were used per experimental condition. In order to compare data obtained from the different experiments, the apparent permeability coefficients (Papp) were calculated according to:
[formula] Where, dQ/dt is the linear appearance rate of mass in receiver compartment, C0 is the initial solute concentration in donor compartment, and A is the surface area. The higher the Papp value, the better the permeation property. The similarity of the Papp values indicates similar behavior for the two DTPA compounds.
We then evaluated transport of Zn-DTPA and Ca-DTPA through jejunum segments with and without Labrasol.
We then tested the transport of 100 mg/ml DTPA in HEPES buffer with and without added enhancers across jejunum segments; results are in Table 3.

[3] = system: harvested rat small intestinal segments: Ileum; experiment: Ussing chamber mucosal to serosal transport across rat ileum; assay type: in vitro ADME; conditions: 5 mg/ml of DTPA in HEPES Buffer
Protocol: as §1, §2

rat colon = experiment: Ussing chamber mucosal to serosal transport across rat colon; assay type: in vitro ADME; conditions: 5 mg/ml of DTPA in HEPES Buffer
Protocol: as §1, §2

[4] = Bioavailability study after liquid dose of radiolabeled DTPA (14C) in male Sprague-Dawley rats (SRI Study B230-06); assay type: in vivo; conditions: for AUC0→last Mean ± SD / AUC0→last: 16.38 mg-equiv DTPA/Kg
Protocol: The objective of this study was to determine the oral bioavailability of Ca-DTPA using radioactive ^14C-DTPA tracer for detection in male Sprague Dawley rats after oral administration in several different formulations. After oral gavage of Ca-DTPA or DTPA (free acid) in sterile water, the oral bioavailability of DTPA is estimated to be about 7% in these two treatment groups. […] In Group 7, which also was administered DTPA in 20% Labrasol (+Quinidine pretreatment), the mean bioavailability was 10%, but this group had greater interindividual variability than seen in the other treatment groups.

O=C([O-])CN(CCN(CC(=O)[O-])CC(=O)[O-])CCN(CC(=O)[O-])CC(=O)[O-].[Ca+2].[Na+].[Na+].[Na+] [Ca-DTPA, calcium diethylenetriaminepentaacetate]
Papp [1]: 1.71 ×10⁻⁶ cm/s
Papp ([2]; Jejunum, 5 mg/ml of drug in HEPES Buffer): 3.84 ×10⁻⁶ cm/s
Papp ([2]; jejunum, 5 mg/ml of drug in HEPES Buffer containing 10% Labrasol): 2.84 ×10⁻⁶ cm/s
Papp ([2]; jejunum, 5 mg/ml of drug in HEPES Buffer containing 20% Labrasol): 3.48 ×10⁻⁶ cm/s
Papp ([2]; jejunum, 5 mg/ml of drug in HEPES Buffer containing 40% Labrasol): 13.51 ×10⁻⁶ cm/s
Papp ([2]; jejunum, 100 mg/ml DTPA in HEPES buffer, 5% Gelucire 44/14 + 5% Labrasol): 7.27 ×10⁻⁶ cm/s
Papp ([2]; jejunum, 100 mg/ml DTPA in HEPES buffer, 5% TPGS + 5% Labrasol): 14.04 ×10⁻⁶ cm/s
Papp ([2]; jejunum, 100 mg/ml DTPA in HEPES buffer, 5% TPGS + 20% Labrasol): 7.85 ×10⁻⁶ cm/s
Papp ([2]; jejunum, 100 mg/ml DTPA in HEPES buffer, 5% Tween 80 + 5% Capmul PG-8): 3.61 ×10⁻⁶ cm/s
Papp ([2]; jejunum, 100 mg/ml DTPA in HEPES buffer, 5% Tween 80 + 5% Labrasol): 11.61 ×10⁻⁶ cm/s
Papp ([2]; jejunum, 100 mg/ml DTPA in HEPES buffer, 5% Tween 80 and 5% Caproyl PGMC): 2.75 ×10⁻⁶ cm/s
Papp ([2]; jejunum, 100 mg/ml DTPA in HEPES buffer, 5% Tween 80 and 5% Labrafil): 2.83 ×10⁻⁶ cm/s
Papp ([2]; jejunum, 100 mg/ml DTPA in HEPES buffer, 10% Gelucire 44/14): 6.57 ×10⁻⁶ cm/s
Papp ([2]; jejunum, 100 mg/ml DTPA in HEPES buffer, 10% Tween 80): 5.43 ×10⁻⁶ cm/s
Papp ([2]; jejunum, 100 mg/ml DTPA in HEPES buffer, 20% Bile Salt): 12.65 ×10⁻⁶ cm/s
Papp ([2]; jejunum, 100 mg/ml of drug in HEPES Buffer containing 10% Labrasol): 6.29 ×10⁻⁶ cm/s
Papp ([2]; jejunum, 100 mg/ml of drug in HEPES Buffer containing 20% Labrasol): 11.76 ×10⁻⁶ cm/s
Papp ([2]; jejunum, 100 mg/ml of drug in HEPES Buffer only): 4.63 ×10⁻⁶ cm/s
Papp [3]: 2.8 ×10⁻⁶ cm/s
Papp (rat colon): 3.22 ×10⁻⁶ cm/s
% Bioavailability ([4]; Group 1 IV, saline (reference)): 100%
% Bioavailability Mean ± SD ([4]; Group 1 IV, saline (reference)): 100.00%
AUC0→last Mean ± SD ([4]; Group 1 IV, saline, last time point 3 hr): 17.73 ± 0.63 Hr * ( ng/ml)
AUC0→last ([4]; Group 1 IV, saline, last time point 3 hr, individual rats): 17.3934 Hr * ( ng/ml) and 17.34 Hr * ( ng/ml) and 18.4585 Hr * ( ng/ml)
AUC0→last Mean ± SD ([4]; Group 2 Oral, water, 6 hr): 1.22 ± 0.05 Hr * ( ng/ml)
AUC0→last ([4]; Group 2 Oral, water, last time point 6 hr, individual rats): 1.2411 Hr * ( ng/ml) and 1.1632 Hr * ( ng/ml) and 1.2516 Hr * ( ng/ml)
% Bioavailability ([4]; Group 2 Oral, water, individual rats): 7.00% and 6.56% and 7.06%
% Bioavailability Mean ± SD ([4]; Group 4 Oral, 20% Labrasol): 12.14 ± 2.29%
AUC0→last Mean ± SD ([4]; Group 4 Oral, 20% Labrasol, 6 hr): 2.15 ± 0.41 Hr * ( ng/ml)
AUC0→last ([4]; Group 4 Oral, 20% Labrasol, last time point 6 hr, individual rats): 1.6901 Hr * ( ng/ml) and 2.3145 Hr * ( ng/ml) and 2.4507 Hr * ( ng/ml)
% Bioavailability ([4]; Group 4 Oral, 20% Labrasol, individual rats): 9.53% and 13.05% and 13.82%
% Bioavailability Mean ± SD ([4]; Group 5 Oral, 5% Labrasol): 7.12 ± 1.37%
AUC0→last Mean ± SD ([4]; Group 5 Oral, 5% Labrasol, 6 hr): 1.26 ± 0.24 Hr * ( ng/ml)
AUC0→last ([4]; Group 5 Oral, 5% Labrasol, last time point 6 hr, individual rats): 1.4714 Hr * ( ng/ml) and 0.9971 Hr * ( ng/ml) and 1.3181 Hr * ( ng/ml)
% Bioavailability ([4]; Group 5 Oral, 5% Labrasol, individual rats): 8.30% and 5.62% and 7.43%
% Bioavailability Mean ± SD ([4]; Group 6 Oral, 5% TPGS + 5% Labrasol): 7.909 ± 0.84%
AUC0→last Mean ± SD ([4]; Group 6 Oral, 5% TPGS + 5% Labrasol, 6 hr): 1.40 ± 0.15 Hr * ( ng/ml)
AUC0→last ([4]; Group 6 Oral, 5% TPGS + 5% Labrasol, last time point 6 hr, individual rats): 1.3506 Hr * ( ng/ml) and 1.284 Hr * ( ng/ml) and 1.5688 Hr * ( ng/ml)
% Bioavailability ([4]; Group 6 Oral, 5% TPGS + 5% Labrasol, individual rats): 7.62% and 7.24% and 8.85%
AUC0→last Mean ± SD ([4]; Group 7 Oral, 0.15 mM Quinidine 20 min before, then 20% Labrasol, 6 hr): 1.81 ± 1.39 Hr * ( ng/ml)
AUC0→last ([4]; Group 7 Oral, 0.15 mM Quinidine 20 min before, then 20% Labrasol, last time point 6 hr, individual rats): 3.3876 Hr * ( ng/ml) and 1.2912 Hr * ( ng/ml) and 0.7655 Hr * ( ng/ml)
% Bioavailability Mean ± SD ([4]; Group 7 Oral, 0.15 mM Quinidine pretreatment then 20% Labrasol): 10.23 ± 7.82%
% Bioavailability ([4]; Group 7 Oral, 0.15 mM Quinidine pretreatment then 20% Labrasol, individual rats): 19.10% and 7.28% and 4.32%
